Results taken from US6676950B2, “Neurokinin receptor antagonists and methods of use thereof for inhibiting HIV infection” (The Children's Hospital of Philadelphia, priority 2001, dated 2004).

Experiments:
HIV Bal strain = test: HIV RT activity in culture supernatants of HIV Bal strain-infected MDM; assay type: cell-based, HIV-1
Experimental: The cells were also incubated with SP and/or anti-SP antibody. In this case, SP was incubated with (1:1000 dilution in 10% FCS DMEM) or without anti-SP antibody at room temperature for 10 min and then the mixture was added to the cell cultures for 2 h. When the cells were treated with the combination of CP-96,345 and SP, or CP-96,345, SP and anti-SP antibody, CP-96,345 was incubated with the cell culture for 10 min and then SP was added to the MDM or CP-96,345, SP and anti-SP (1:1000 in 10% FCS DMEM) were incubated for 10 min at room temperature and the mixture was incubated with the MDM for 2 h before infection with HIV. Untreated MDM served as controls. The cells were treated prior to, during, and throughout the infection.
HIV Infection: After 2 h incubation with or without the reagents described above, the cells were infected with equal amounts of cell-free HIV based on p24 antigen content (20 ng/10^6 cells) overnight, and then washed to remove unbound virus. Fresh media containing SP and/or CP-96,345 or anti-SP antibody were added to the MDM as described above. The culture media and the reagents were replaced twice weekly. The culture supernatants were harvested for HIV reverse transcriptase (RT) activity determinations. After HIV infection, the MDM were incubated for 8 to 12 days. At the termination of the experiments, cellular RNA was extracted for assessment of HIV gag gene expression using RT-PCR or real time RT-PCR assays.
The HIV RT activity assay was carried out based on the technique of Willey et al. (30) with modification (22).

X4 strain (UG024) = test: HIV RT activity in MDM infected with X4 strain; assay type: cell-based; conditions: 8 days after infection
Experimental: Based upon their differential use of the major HIV co-receptors, HIV isolates have been referred to as R5, X4 or R5X4 strains, respectively (29). The M-tropic (macrophage-tropic) R5 prototype strains (Bal and ADA), dual tropic strain (89.6) and X4 primary isolate (UG024), were obtained from the NIH AIDS Reagent Program. Primary M-tropic isolates (BL-6 and CSF-6) were isolated from the blood and cerebrospinal fluid cells, respectively, of a subject with AIDS. […] The cells were also incubated with SP and/or anti-SP antibody. In this case, SP was incubated with (1:1000 dilution in 10% FCS DMEM) or without anti-SP antibody at room temperature for 10 min and then the mixture was added to the cell cultures for 2 h. When the cells were treated with the combination of CP-96,345 and SP, or CP-96,345, SP and anti-SP antibody, CP-96,345 was incubated with the cell culture for 10 min and then SP was added to the MDM or CP-96,345, SP and anti-SP (1:1000 in 10% FCS DMEM) were incubated for 10 min at room temperature and the mixture was incubated with the MDM for 2 h before infection with HIV. Untreated MDM served as controls. The cells were treated prior to, during, and throughout the infection. […]

[1] = system: luciferase-encoding HIV virions pseudotyped with MLV Env (CCR5-independent); test: Pseudotype reporter virus entry assay, MLV Env; assay type: cell-based
Experimental: Pseudotype reporter virus entry assay: Recombinant luciferase-encoding HIV virions pseudotyped with Env from the M-tropic ADA (CCR5-dependent) and amphitropic murine leukemia virus (MLV) (CCR5-independent) were used to study HIV infection of MDM incubated with or without CP-96,345 or R-113281. The Env-deleted luciferase reporter plasmid PNL-Luc-E-R+ (kindly provided by N. Landau) was cotransfected into 293T cells along with plasmids encoding the ADA or MLV Env genes as previously described (31). Supernatants were collected 48 h later, assayed for p24^Gag antigen content, and frozen at −80° C. MDM (2.5×10^5 cells/well, in 48-well plates) were incubated overnight with or without CP-96,345 or R-113281 and then infected using 20 ng of p24^Gag antigen equivalent of each pseudotype HIV per well, in the presence of polybrene (7.5 μg/ml). At 72 h postinfection, the cells were lysed in 150 μl of 0.5% Triton-X-100 in PBS. Lysate (50 μl) was mixed with an equal volume of luciferase substrate (Promega, […].) and luciferase activity was determined in a microtiter plate luminometer (Dynex Technologies, Chantilly, Va.). The results were expressed as relative light units (RLU) in CP-96,345-treated or R-113281-treated and infected MDM as a percentage of that in untreated and infected MDM.

Row | SMILES | viral replication as determined by HIV RT activity (HIV Bal strain; 10^−7M, 8 days after infection, vs HIV infection control) | effect on SP-enhanced HIV replication in MDM (HIV RT activity and HIV gag mRNA levels) (HIV Bal strain; SP 10^−6M, CP-96,345 10^−6M, anti-SP antibody 1:1000 dilution, 12 days after infection) | HIV replication relative to HIV infection control (HIV Bal strain; in presence of SP 10^−6M, CP-96,345 10^−6M and/or anti-SP antibody 1:1000, 12 days) | replication of X4 strain UG024 (HIV RT activity) (X4 strain (UG024); CP-96,345 10^−7M) | MLV Env-pseudotyped HIV infection of MDM (luciferase activity) ([1]; CP-96,345 10^−8 and 10^−7 M overnight pretreatment) | HIV RT activity (HIV Bal strain; MDM treated 2 hours, HIV-1 M-tropic strain Bal, day 8 post-infection) | replication of X4 strain (HIV RT activity) (X4 strain (UG024); R-113281 10^−6 M) | MLV-Env pseudotyped HIV infection of MDM (luciferase activity) ([1]; R-113281 10^−7 and 10^−6 overnight pretreatment)
1 | COc1ccccc1CN[C@H]1C2CCN(CC2)[C@H]1C(c1ccccc1)c1ccccc1 [CP-96,345, [2S,3S)-cis-2-(diphenylmethyl)-N-[(2-methoxyphenyl)-methyl]-1-azabicyclo [[2.2.2]-octan-3-amine]] | inhibited | abrogated | down-regulated HIV replication to a level that was even lower than that of the HIV infection control | not affected | failed to block |  |  | 
2 | COc1cc(C(=O)N2CCO[C@](CCN3CCC4(CC3)c3ccccc3C[S@+]4[O-])(c3ccc(Cl)c(Cl)c3)C2)cc(OC)c1OC.Cl [R-113281] |  |  |  |  |  | significantly reduced | not affected | failed to block
